Experimental findings from paper PMC11310081, “Deep-learning-enabled antibiotic discovery through molecular de-extinction” (Nature Biomedical Engineering, 2024) are described below.

Like-named read-outs stand apart in the source and are kept apart here. Peptide text beside a SMILES is read from it.

The test system of data set [1] is 11 clinically relevant bacterial pathogens. The class given is cell-based. The settings on record: Supplementary Dataset 2; against the 11 pathogens tested. An excerpt:
The following Gram-negative bacteria were used in our study: A. baumannii ATCC 19606, E. coli ATCC 11775, E. coli AIC221 (E. coli MG1655 phnE_2::FRT), E. coli AIC222 (E. coli MG1655 pmrA53 phnE_2::FRT (colistin resistant)), K. pneumoniae ATCC 13883, P. aeruginosa PAO1 and P. aeruginosa PA14. The following Gram-positive bacteria were also used in our study: S. aureus ATCC 12600, S. aureus ATCC BAA-1556 (methicillin-resistant strain), E. faecalis ATCC 700802 (vancomycin-resistant strain) and E. faecium ATCC 700221 (vancomycin-resistant strain). Bacteria were grown from frozen stocks and plated on Luria–Bertani (LB) or Pseudomonas isolation agar plates (P. aeruginosa strains) and incubated overnight at 37 °C. After the incubation period, a single colony was transferred to 5 ml of LB medium, and cultures were incubated overnight (16 h) at 37 °C. The following day, an inoculum was prepared by diluting the overnight cultures 1:100 in 5 ml of the respective media and incubating them at 37 °C until bacteria reached logarithmic phase (OD600 = 0.3–0.5).
The in vitro antimicrobial activity of the peptides was assessed by using the broth microdilution assay. […] Aqueous solutions of the peptides were added to the plate at concentrations ranging from 1 to 64 μmol l^−1. […] The optical density of the plates was measured at 600 nm using a spectrophotometer. All assays were done as three biological replicates.

The subject of data set [2] is HEK293T cells. As for the experimental part:
HEK293T cells were obtained from the American Type Culture Collection (CRL-3216). The cells were cultured in high-glucose Dulbecco’s modified Eagle’s medium supplemented with 1% penicillin and streptomycin (antibiotics) and 10% fetal bovine serum and grown at 37 °C in a humidified atmosphere containing 5% CO2.
One day before the experiment, an aliquot of 100 μl of the cells at 50,000 cells per ml was seeded into each well of the cell-treated 96-well plates used in the experiment (that is, 5,000 cells per well). […] After the incubation period, we performed the 3-(4,5-dimethylthiazol-2-yl)-2,5-diphenyltetrazolium bromide tetrazolium reduction assay (MTT assay)[53]. The MTT reagent was dissolved at 0.5 mg ml^−1 in medium without phenol red and was used to replace cell culture supernatants containing the peptides (100 μl per well), and the samples were incubated for 4 h at 37 °C in a humidified atmosphere containing 5% CO2 yielding the insoluble formazan salt. The resulting salts were then resuspended in hydrochloric acid (0.04 mol l^−1) in anhydrous isopropanol and quantified by spectrophotometric measurements of absorbance at 570 nm. All assays were done as three biological replicates.
Unless otherwise stated, all assays were performed in three independent biological replicates as indicated in each figure legend and Methods sections. The cytotoxic activities values were estimated using non-linear regression based on the range of concentrations screened and were shown as the values that cause lysis of 50% of the cells in the experiment. Two technical replicates were performed in the cytotoxicity assays within each of the three biological replicates.

For data set [3], the system named is A. baumannii ATCC 19606. The data set is described as follows: Neutropenic thigh infection mouse model. The data set is classed as in vivo, CD-1 mice. To be noted: neutropenic CD-1 mice. How it is done: Six-week-old female CD-1 mice from Charles River (stock number 18679700-022) were rendered neutropenic by two doses of cyclophosphamide (150 mg kg^−1) applied intraperitoneally with an interval of 72 h. One day after the last dose of cyclophosphamide, the mice were injected intramuscularly in their right thigh with a bacterial load of 10^6 c.f.u. ml^−1 of A. baumannii ATCC 19606 cells. The bacteria had been grown in LB broth, washed twice with PBS (pH 7.4), and resuspended to the desired concentration. Two hours after bacterial injection, peptides resuspended in water were administered intraperitoneally, and the untreated mice were inoculated with the same volume of deionized water. Before each injection, mice were anaesthetized with isoflurane and monitored for respiratory rate and pedal reflexes. Next, we monitored the establishment of the infection and euthanized the mice. The infected area was excised 2 days and 4 days post infection, homogenized using a bead beater for 20 min (25 Hz), and then serially diluted tenfold for quantification of colony-forming units in MacConkey agar plates. The experiments were performed with six mice per group. All experiments were performed blindly, and no animal subjects were excluded from the analysis. The thigh infection mouse model was approved by the University Laboratory Animal Resources from the University of Pennsylvania (protocol 807055). Statistical significance was determined using one-way ANOVA followed by Dunnett’s test in log10-transformed data to mitigate the effect of outliers; P values are presented for each group, with all groups being compared to the untreated control group.

The test system of data set [4] is A. baumannii ATCC 19606. The data set is described as follows: Skin abscess infection mouse model. To be noted: CD-1 mice. The data set is classed as in vivo, CD-1 mice. As for the experimental part: A. baumannii ATCC 19606 cells were grown in LB medium to an OD600 = 0.5. Cells were washed twice with sterile phosphate-buffered saline (PBS) (pH 7.4, 13,000 r.p.m. for 2 min) and resuspended to a final concentration of 10^6 (A. baumannii cells) colony-forming units per millilitre (c.f.u. ml^−1). Six-week-old female CD-1 mice from Charles River (stock number 18679700-022) were anaesthetized with isoflurane, and their backs were sterilized and shaved. A superficial linear skin abrasion was made with a needle to damage the stratum corneum and upper layer of the epidermis. An aliquot of 20 μl containing the bacterial load resuspended in PBS was inoculated over the scratched area. Two hours after the infection, peptides diluted in water at their MIC value were administered to the infected area, and the untreated mice were inoculated with the same volume of deionized water. Mice were euthanized, and the area of scarified skin was excised 2 days and 4 days post infection, homogenized using a bead beater for 20 min (25 Hz) and then serially diluted tenfold for quantification of colony-forming units. This quantitative method was used as it has been established to accurately reflect the number of bacteria present in a given infected area. MacConkey agar plates were used as A. baumannii colonies appear purple in this medium and can easily be distinguished from other strains. The experiments were performed with six mice per group. All experiments were performed blindly, and no animal subjects were excluded from the analysis. The skin abscess infection mouse model was approved by the University Laboratory Animal Resources from the University of Pennsylvania (protocol 806763). Statistical significance was determined using one-way analysis of variance (ANOVA) followed by Dunnett’s test in log10-transformed data to mitigate the effect of outliers; P values are presented for each group, with all groups being compared to the untreated control group.

[5] abbreviates: A. baumannii ATCC 19606, day 2, replicate 1.
Setting [6] is: A. baumannii ATCC 19606, day 2, replicate 2.
[7] abbreviates: A. baumannii ATCC 19606, day 2, replicate 3.
Where [8] appears, read: A. baumannii ATCC 19606, day 2, replicate 4.
Where [9] appears, read: A. baumannii ATCC 19606, day 2, replicate 5.
[10] abbreviates: A. baumannii ATCC 19606, day 2, replicate 6.
Where [11] appears, read: A. baumannii ATCC 19606, day 4, replicate 1.
[12] abbreviates: A. baumannii ATCC 19606, day 4, replicate 2.
Where [13] appears, read: A. baumannii ATCC 19606, day 4, replicate 3.
The mark [14] stands for this setting: A. baumannii ATCC 19606, day 4, replicate 4.
Setting [15] is: A. baumannii ATCC 19606, day 4, replicate 5.
Setting [16] is: A. baumannii ATCC 19606, day 4, replicate 6.

Turning to `CC[C@H](C)[C@H](N)C(=O)N[C@@H](CC(C)C)C(=O)N[C@@H](CC(C)C)C(=O)N[C@H](C(=O)N[C@H](C(=O)N[C@@H](C)C(=O)N[C@H](C(=O)N[C@@H](C)C(=O)N[C@H](C(=O)N[C@@H](CCCCN)C(=O)N[C@@H](CC(C)C)C(=O)NCC(=O)N[C@@H](CC(C)C)C(=O)O)[C@@H](C)CC)[C@@H](C)CC)[C@@H](C)O)[C@@H](C)O` [Ararin-1] (H-ILLTTAIAIKLGL-OH; N-terminus and C-terminus assumed), the “Active or Inactive” value in data set [1] is listed as “Active”. In addition, in data set [2] (24 h), the CC50 is greater than 128 µM and the “TI (therapeutic index)” value is reported as greater than 4.

Consider `CC[C@H](C)[C@H](NC(=O)[C@H](CCCCN)NC(=O)[C@H](CC(C)C)NC(=O)[C@H](Cc1c[nH]cn1)NC(=O)[C@@H](N)CC(C)C)C(=O)N[C@@H](CC(C)C)C(=O)N[C@@H](CCCCN)C(=O)N[C@H](C(=O)N[C@H](C(=O)N[C@@H](CCCNC(=N)N)C(=O)N[C@@H](CC(C)C)C(=O)N[C@@H](CC(C)C)C(=O)O)[C@@H](C)CC)[C@@H](C)CC` [Elephasin-1] (H-LHLKILKIIRLL-OH; N-terminus and C-terminus assumed), for which, in data set [1], the “Active or Inactive” value is on record as “Active”.

In the case of `CC[C@H](C)[C@H](NC(=O)[C@H](Cc1c[nH]cn1)NC(=O)[C@@H](N)CC(C)C)C(=O)NCC(=O)N[C@@H](CC(C)C)C(=O)N[C@H](C(=O)N[C@@H](CCCCN)C(=O)N[C@H](C(=O)N[C@@H](Cc1ccc(O)cc1)C(=O)N[C@@H](CC(C)C)C(=O)NCC(=O)N[C@@H](CO)C(=O)N[C@@H](Cc1ccccc1)C(=O)N[C@@H](C)C(=O)N[C@@H](CC(C)C)C(=O)O)[C@@H](C)O)[C@@H](C)CC` [Eudyptin-1] (H-LHIGLIKTYLGSFAL-OH; N-terminus and C-terminus assumed), the “Active or Inactive” value in data set [1] is given as “Active”. In data set [2] (24 h), the 50% cytotoxic concentration (CC50) was greater than 128 µM and the “TI (therapeutic index)” value was greater than 2.

In the case of `CC[C@H](C)[C@H](N)C(=O)N[C@H](C(=O)NCC(=O)N[C@@H](CC(N)=O)C(=O)N[C@H](C(=O)N[C@@H](Cc1ccccc1)C(=O)NCC(=O)N[C@@H](Cc1ccccc1)C(=O)N[C@@H](CCCCN)C(=O)N[C@@H](C)C(=O)N[C@@H](CC(C)C)C(=O)N[C@@H](CCCNC(=N)N)C(=O)N[C@@H](C)C(=O)N[C@@H](CC(C)C)C(=O)N[C@@H](CCCNC(=N)N)C(=O)N[C@@H](CC(C)C)C(=O)O)C(C)C)C(C)C` [Hesperelin-4] (H-IVGNVFGFKALRALRL-OH; N-terminus and C-terminus assumed), the “Active or Inactive” value in data set [1] was “Active”.

`CC[C@H](C)[C@H](NC(=O)[C@H](CCCCN)NC(=O)[C@H](CC(C)C)NC(=O)[C@H](CO)NC(=O)[C@@H](NC(=O)[C@H](CO)NC(=O)[C@H](CC(C)C)NC(=O)[C@H](CCCCN)NC(=O)[C@@H](NC(=O)[C@@H](NC(=O)[C@H](CC(N)=O)NC(=O)[C@@H](NC(=O)[C@@H](NC(=O)[C@@H](NC(=O)[C@H](Cc1c[nH]c2ccccc12)NC(=O)[C@@H](N)Cc1c[nH]cn1)[C@@H](C)CC)[C@@H](C)O)[C@@H](C)CC)[C@@H](C)O)[C@@H](C)CC)[C@@H](C)CC)C(=O)O` [Lophiosin-1] (H-HWITINTIKLSISLKI-OH; N-terminus and C-terminus assumed): the “Active or Inactive” value in data set [1] is listed as “Active”. In data set [2], the CC50 is 68.02 µM.

In the case of polymyxin B [reference compound], the “bacterial count, thigh infection (Panel 6d)” value worked out at 20000 in data set [3] (setting [5]); 80000 in data set [3] (setting [6]); 200000 in data set [3] (setting [7]); 40000 in data set [3] (setting [8]); 40000 in data set [3] (setting [9]); 200000 in data set [3] (setting [10]). Further, the “bacterial count, thigh infection (Panel 6d)” value in data set [3] (setting [11]) was 200000; in data set [3] (setting [12]), 400000; in data set [3] (setting [13]), 1200000; in data set [3] (setting [14]), 600000; in data set [3] (setting [15]), 600000; in data set [3] (setting [16]), 200000. Further, the “bacterial count, skin abscess (Panel 6b)” value was 4000 in data set [4] (setting [5]); 2000 in data set [4] (setting [6]); 8000 in data set [4] (setting [7]); 6000 in data set [4] (setting [8]); 1400 in data set [4] (setting [9]); 400 in data set [4] (setting [10]). For the same compound, the “bacterial count, skin abscess (Panel 6b)” value in data set [4] (setting [11]) is recorded as 8000; in data set [4] (setting [12]), 10000; in data set [4] (setting [13]), 600; in data set [4] (setting [14]), 600; in data set [4] (setting [15]), 200; in data set [4] (setting [16]) it was 400.
